From BindingDB's records for doi:10.1016/j.bmcl.2006.10.063 (Astrazeneca R&D Boston, 2007)

molecular target: T1, Amine oxidase [flavin-containing] A (Homo sapiens, UniProt P21397); assay: Inhibition human liver MAOA activity
T1 sequence (P21397 whole entry): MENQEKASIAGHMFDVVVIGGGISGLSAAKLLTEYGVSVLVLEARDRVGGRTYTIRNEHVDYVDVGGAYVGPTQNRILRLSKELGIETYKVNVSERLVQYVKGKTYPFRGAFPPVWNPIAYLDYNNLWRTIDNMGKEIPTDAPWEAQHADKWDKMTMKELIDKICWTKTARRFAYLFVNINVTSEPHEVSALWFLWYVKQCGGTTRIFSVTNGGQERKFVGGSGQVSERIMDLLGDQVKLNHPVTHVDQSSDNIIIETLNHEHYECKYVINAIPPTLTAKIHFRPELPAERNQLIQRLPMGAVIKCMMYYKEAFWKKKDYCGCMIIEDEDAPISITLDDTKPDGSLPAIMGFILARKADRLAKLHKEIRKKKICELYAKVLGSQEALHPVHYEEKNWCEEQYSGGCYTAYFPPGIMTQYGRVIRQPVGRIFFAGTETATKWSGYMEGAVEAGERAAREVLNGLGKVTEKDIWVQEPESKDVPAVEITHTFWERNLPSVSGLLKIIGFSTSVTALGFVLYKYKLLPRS

Compound	Ki [µM]
Cc1cc(-c2ccc(N3C[C@H](CNc4ccon4)OC3=O)cc2F)on1 [(5S)-3-(3-fluoro-4-(3-methylisoxazol-5-yl)phenyl)-5-((isoxazol-3-ylamino)methyl)oxazolidin-2-one]	0.42
CC(=O)NC[C@H]1CN(c2ccc(-c3cc(C)no3)c(F)c2)C(=O)O1 [N-(((S)-3-(3-fluoro-4-(3-methylisoxazol-5-yl)phenyl)-2-oxooxazolidin-5-yl)methyl)acetamide]	0.95

Continued by falling Ki, values first:

Ki [µM]	Compound
22.6	Cc1cn(C[C@H]2CN(c3ccc(-c4cc(C)no4)c(F)c3)C(=O)O2)nn1 [(5R)-3-(3-fluoro-4-(3-methylisoxazol-5-yl)phenyl)-5-((4-methyl-1H-1,2,3-triazol-1-yl)methyl)oxazolidin-2-one]
20	CC(=O)NC[C@H]1CN(c2ccc(N3CCOCC3)c(F)c2)C(=O)O1 [Zyvox]
2.9	Cc1cc(-c2ccc(N3C[C@H](Cn4ccnn4)OC3=O)cc2F)on1 [(5R)-5-((1H-1,2,3-triazol-1-yl)methyl)-3-(3-fluoro-4-(3-methylisoxazol-5-yl)phenyl)oxazolidin-2-one]
